This note sets out measurements from ChEMBL document CHEMBL5154941, “Structural Modifications of Nimodipine Lead to Novel PDE1 Inhibitors with Anti-pulmonary Fibrosis Effects” (J Med Chem, 2022).

pIC50: −log10 of the molar value. Calls of active or inactive are those of the source. No cut-off for these calls is given here. Bounds are passed on as bounds.

Data set [1] deals with T1, High affinity cGMP-specific 3',5'-cyclic phosphodiesterase 9A (Homo sapiens, UniProt O76083). The data set can be described thus: Inhibition of PDE9A2 (181 to 506 residues) (unknown origin) expressed in Escherichia coli BL21 using [3H]-cGMP as substrate measured for 15 mins by liquid scintillation counter method.
The nature of data set [2]: Clearance in Sprague-Dawley rat at 5 mg/kg, iv. The data set is classed as ADME, organism-based. The following applies: in vivo.
Data set [3] concerns the target T1, High affinity cGMP-specific 3',5'-cyclic phosphodiesterase 9A. In words: Inhibition of PDE9A (181 to 506 residues) (unknown origin) expressed in Escherichia coli BL21 using [3H]-cGMP as substrate at 10000 nM measured for 15 mins by liquid scintillation counter method.
Data set [4] has as its system Rattus norvegicus. The data set can be described thus: Antifibrotic activity in bleomycin-induced Sprague-Dawley rat pulmonary fibrosis model assessed as decrease in number of lung foci at 5 mg/kg, ip administered daily for 28 days by H&E staining based histopathological analysis. Type of data set: functional, organism-based. The following applies: time 28.0 day.
Data set [5] in a line: MRT (0 to t) in Sprague-Dawley rat at 5 mg/kg, iv. The data set is classed as ADME, organism-based. The following applies: in vivo.
Data set [6] has as its system Rattus norvegicus. The data set can be described thus: Antifibrotic activity in bleomycin-induced Sprague-Dawley rat pulmonary fibrosis model assessed as decrease in enhanced pause at 2.5 to 5 mg/kg, ip administered daily for 28 days. The data set is classed as functional, organism-based. The following applies: dose 2.5-5 mg/kg, time 28.0 day.
Data set [7] has as its target 3',5'-cyclic-AMP phosphodiesterase 4D (Homo sapiens, UniProt Q08499). The data set can be described thus: Inhibition of PDE4D2 (86 to 413 residues) (unknown origin) expressed in Escherichia coli BL21 [3H]-cAMP as substrate measured for 15 mins by liquid scintillation counter method.
The test system of data set [8] is HLF. The data set can be described thus: Antifibrotic activity in TGF-beta induced HLF cell assessed as suppression of FN level incubated for 48 hrs by Western blot analysis. The data set is classed as functional, cell-based. The following applies: Homo sapiens, DDE = dose-dependent effect.
A short description of data set [9]: Half life in Sprague-Dawley rat at 5 mg/kg, iv. Type of data set: ADME, organism-based. The following applies: in vivo.
The subject of data set [10] is HLF. In words: Antifibrotic activity in TGF-beta induced HLF cell assessed as suppression of FN level at 10 uM incubated for 48 hrs by Western blot analysis. The following applies: Homo sapiens. Type of data set: functional, cell-based. A general note: A western blot detects proteins with antibodies after separation by electrophoresis.
In data set [11] the target is cGMP-inhibited 3',5'-cyclic phosphodiesterase 3A (Homo sapiens, UniProt Q14432). In words: Inhibition of PDE3A (679 to 1087 residues) (unknown origin) expressed in Escherichia coli BL21 using [3H]-cAMP as substrate measured for 15 mins by liquid scintillation counter method.
A short description of data set [12]: Cmax in Sprague-Dawley rat at 5 mg/kg, iv. The data set is classed as ADME, organism-based. Also on record: dose 5 mg/kg, route iv. The following applies: in vivo.
The test system of data set [13] is Rattus norvegicus. In words: Antifibrotic activity in bleomycin-induced Sprague-Dawley rat lung fibrosis model assessed as decrease in collagen deposition at 2.5 to 5 mg/kg, ip administered daily for 28 days by Masson's trichrome staining based analysis. The following applies: dose 2.5-5 mg/kg, time 28.0 day. The data set is classed as functional, organism-based.

For data set [14], the system named is Rattus norvegicus. The data set can be described thus: Antifibrotic activity in bleomycin-induced Sprague-Dawley rat pulmonary fibrosis model assessed as decrease in relaxation time at 2.5 to 5 mg/kg, ip administered daily for 28 days. The following applies: dose 2.5-5 mg/kg, time 28.0 day. The data set is classed as functional, organism-based.
Data set [15] concerns the target Voltage-gated inwardly rectifying potassium channel KCNH2 (Homo sapiens, UniProt Q12809). In words: Inhibition of hERG ion channel expressed in CHO cells by automated patch clamp electrophysiology method. Type of data set: toxicity, cell-based. On the technique in general: Block of hERG is tested as a sign of cardiac risk.
Data set [16] has as its system HLF. The data set can be described thus: Antifibrotic activity in TGF-beta induced HLF cell assessed as suppression of Col-I level at 10 uM incubated for 48 hrs by Western blot analysis. Type of data set: functional, cell-based. The following applies: Homo sapiens.
Data set [17] has as its target Dual specificity calcium/calmodulin-dependent 3',5'-cyclic nucleotide phosphodiesterase 1A (Homo sapiens, UniProt P54750). The data set can be described thus: Inhibition of PDE1A (142 to 552 residues) (unknown origin) expressed in Escherichia coli BL21 measured for 15 mins by liquid scintillation counter method.
The subject of data set [18] is Rattus norvegicus. In words: Antifibrotic activity in bleomycin-induced Sprague-Dawley rat lung fibrosis model assessed as reduced septal enlargement at 5 mg/kg, ip administered daily for 28 days by hematoxylin and eosin staining based histopathological analysis. The following applies: time 28.0 day. The data set is classed as functional, organism-based.
Data set [19] relates to Rattus norvegicus. The data set can be described thus: Antifibrotic activity in bleomycin-induced Sprague-Dawley rat lung fibrosis model assessed as decrease in alpha-smooth muscle actin level at 2.5 to 5 mg/kg, ip administered daily for 28 days by Western blot analysis. The data set is classed as functional, organism-based. The following applies: dose 2.5-5 mg/kg, time 28.0 day.

The next data set has as its target Cytochrome P450 2C9 (Homo sapiens, UniProt P11712). In words: Inhibition of CYP2C9 in human liver microsomes at 25 uM in the presence of NADPH. The data set is classed as ADME, Microsome. (In general: Microsomes from liver hold many membrane-bound enzymes, among them those of drug oxidation.)

T1 sequence (O76083 whole entry, the tested form may be a part): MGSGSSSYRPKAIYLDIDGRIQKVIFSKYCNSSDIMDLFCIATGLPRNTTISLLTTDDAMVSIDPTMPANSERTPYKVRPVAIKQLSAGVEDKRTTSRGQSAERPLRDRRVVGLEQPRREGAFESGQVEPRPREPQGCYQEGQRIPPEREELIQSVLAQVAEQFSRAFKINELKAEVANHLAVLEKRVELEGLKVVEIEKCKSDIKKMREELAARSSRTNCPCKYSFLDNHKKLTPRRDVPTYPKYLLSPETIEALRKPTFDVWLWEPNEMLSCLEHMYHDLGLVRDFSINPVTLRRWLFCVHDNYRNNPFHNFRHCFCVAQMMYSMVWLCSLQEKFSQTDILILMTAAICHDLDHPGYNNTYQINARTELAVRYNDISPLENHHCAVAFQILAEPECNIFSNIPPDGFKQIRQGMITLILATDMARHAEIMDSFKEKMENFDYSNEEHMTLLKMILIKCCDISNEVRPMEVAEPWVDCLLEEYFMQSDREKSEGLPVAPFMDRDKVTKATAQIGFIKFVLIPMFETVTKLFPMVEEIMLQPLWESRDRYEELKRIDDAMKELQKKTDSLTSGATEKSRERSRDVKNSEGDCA
Voltage-gated inwardly rectifying potassium channel KCNH2, sequence (Q12809 whole entry): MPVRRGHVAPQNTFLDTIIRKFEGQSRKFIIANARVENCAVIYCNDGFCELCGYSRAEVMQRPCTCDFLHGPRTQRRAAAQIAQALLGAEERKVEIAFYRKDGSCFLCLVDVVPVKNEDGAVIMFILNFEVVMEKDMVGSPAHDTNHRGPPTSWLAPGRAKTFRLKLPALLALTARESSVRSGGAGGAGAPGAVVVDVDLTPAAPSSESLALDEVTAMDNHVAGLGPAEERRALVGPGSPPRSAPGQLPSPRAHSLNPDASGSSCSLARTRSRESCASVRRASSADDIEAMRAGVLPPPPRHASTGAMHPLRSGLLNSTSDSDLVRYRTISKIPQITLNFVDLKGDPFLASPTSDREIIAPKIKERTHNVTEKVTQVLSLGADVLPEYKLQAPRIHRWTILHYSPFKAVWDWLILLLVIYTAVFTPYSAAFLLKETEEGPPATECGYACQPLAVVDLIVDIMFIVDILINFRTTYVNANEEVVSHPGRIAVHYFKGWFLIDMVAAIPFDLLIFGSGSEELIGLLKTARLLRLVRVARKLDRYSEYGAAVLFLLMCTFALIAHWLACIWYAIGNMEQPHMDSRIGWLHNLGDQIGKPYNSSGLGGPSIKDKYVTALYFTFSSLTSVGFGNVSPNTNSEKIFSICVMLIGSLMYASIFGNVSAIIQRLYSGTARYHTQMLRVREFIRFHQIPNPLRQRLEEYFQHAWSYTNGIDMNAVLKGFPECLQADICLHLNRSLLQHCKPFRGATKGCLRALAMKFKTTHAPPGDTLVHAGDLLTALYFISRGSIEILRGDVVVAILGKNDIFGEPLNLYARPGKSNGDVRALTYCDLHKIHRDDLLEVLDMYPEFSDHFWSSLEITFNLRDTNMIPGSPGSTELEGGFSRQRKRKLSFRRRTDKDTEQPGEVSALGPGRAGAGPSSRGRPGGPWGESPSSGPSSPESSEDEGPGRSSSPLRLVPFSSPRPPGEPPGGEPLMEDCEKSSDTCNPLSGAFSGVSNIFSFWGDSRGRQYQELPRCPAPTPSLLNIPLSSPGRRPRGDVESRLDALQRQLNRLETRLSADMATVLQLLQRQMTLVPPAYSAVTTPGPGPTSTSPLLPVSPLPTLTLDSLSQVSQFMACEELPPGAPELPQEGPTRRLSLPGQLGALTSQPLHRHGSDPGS
cGMP-inhibited 3',5'-cyclic phosphodiesterase 3A, sequence (Q14432 whole entry, the tested form may be a part): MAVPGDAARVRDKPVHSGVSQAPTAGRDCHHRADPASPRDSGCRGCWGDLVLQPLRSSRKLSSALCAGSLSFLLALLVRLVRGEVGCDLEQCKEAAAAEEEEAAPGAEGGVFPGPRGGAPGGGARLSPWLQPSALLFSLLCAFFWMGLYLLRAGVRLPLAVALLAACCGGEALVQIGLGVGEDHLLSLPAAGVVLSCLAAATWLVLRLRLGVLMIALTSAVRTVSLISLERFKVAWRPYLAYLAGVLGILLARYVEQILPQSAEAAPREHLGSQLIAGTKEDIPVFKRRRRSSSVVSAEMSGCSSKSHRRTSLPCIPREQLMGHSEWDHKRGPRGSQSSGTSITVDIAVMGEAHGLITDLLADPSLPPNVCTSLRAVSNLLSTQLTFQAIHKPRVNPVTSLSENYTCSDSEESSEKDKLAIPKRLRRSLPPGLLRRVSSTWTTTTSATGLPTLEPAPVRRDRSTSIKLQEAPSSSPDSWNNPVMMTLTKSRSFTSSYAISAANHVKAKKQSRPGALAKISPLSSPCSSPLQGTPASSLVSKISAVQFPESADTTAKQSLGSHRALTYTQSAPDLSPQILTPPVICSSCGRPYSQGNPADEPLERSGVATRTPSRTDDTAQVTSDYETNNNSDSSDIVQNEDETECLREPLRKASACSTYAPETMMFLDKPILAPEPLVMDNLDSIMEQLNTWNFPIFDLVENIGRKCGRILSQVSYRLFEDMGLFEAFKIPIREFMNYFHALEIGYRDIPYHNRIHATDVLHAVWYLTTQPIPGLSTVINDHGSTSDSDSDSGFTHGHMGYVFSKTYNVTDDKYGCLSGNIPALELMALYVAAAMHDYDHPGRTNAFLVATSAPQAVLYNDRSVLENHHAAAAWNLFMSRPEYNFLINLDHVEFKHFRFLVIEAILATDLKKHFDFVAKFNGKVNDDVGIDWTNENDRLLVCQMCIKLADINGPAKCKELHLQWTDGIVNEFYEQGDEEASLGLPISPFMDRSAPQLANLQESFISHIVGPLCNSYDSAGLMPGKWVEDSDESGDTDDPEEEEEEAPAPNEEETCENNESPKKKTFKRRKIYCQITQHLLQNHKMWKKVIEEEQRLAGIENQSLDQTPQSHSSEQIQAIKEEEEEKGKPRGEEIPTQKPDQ
3',5'-cyclic-AMP phosphodiesterase 4D, sequence (Q08499 whole entry, the tested form may be a part): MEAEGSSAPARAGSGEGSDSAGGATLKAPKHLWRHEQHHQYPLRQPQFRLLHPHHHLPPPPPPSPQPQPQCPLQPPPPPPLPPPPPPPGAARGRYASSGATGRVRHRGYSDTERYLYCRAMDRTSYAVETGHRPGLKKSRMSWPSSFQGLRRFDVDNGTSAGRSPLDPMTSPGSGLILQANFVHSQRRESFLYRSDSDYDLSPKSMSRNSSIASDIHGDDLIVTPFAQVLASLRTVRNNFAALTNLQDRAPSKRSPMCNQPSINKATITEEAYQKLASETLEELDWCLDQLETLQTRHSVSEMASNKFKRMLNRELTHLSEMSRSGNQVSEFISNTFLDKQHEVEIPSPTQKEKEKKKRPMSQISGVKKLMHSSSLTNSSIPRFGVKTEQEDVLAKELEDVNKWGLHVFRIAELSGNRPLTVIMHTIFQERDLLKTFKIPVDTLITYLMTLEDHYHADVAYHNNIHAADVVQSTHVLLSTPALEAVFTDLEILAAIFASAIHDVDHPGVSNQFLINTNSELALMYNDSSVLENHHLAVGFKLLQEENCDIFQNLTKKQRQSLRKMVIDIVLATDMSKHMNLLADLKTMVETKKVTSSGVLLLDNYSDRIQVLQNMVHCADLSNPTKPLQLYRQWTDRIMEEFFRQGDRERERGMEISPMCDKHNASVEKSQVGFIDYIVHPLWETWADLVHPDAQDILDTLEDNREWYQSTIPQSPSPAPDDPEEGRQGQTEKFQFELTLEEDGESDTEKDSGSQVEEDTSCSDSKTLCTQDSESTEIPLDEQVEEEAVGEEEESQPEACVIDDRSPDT
Dual specificity calcium/calmodulin-dependent 3',5'-cyclic nucleotide phosphodiesterase 1A, sequence (P54750 whole entry, the tested form may be a part): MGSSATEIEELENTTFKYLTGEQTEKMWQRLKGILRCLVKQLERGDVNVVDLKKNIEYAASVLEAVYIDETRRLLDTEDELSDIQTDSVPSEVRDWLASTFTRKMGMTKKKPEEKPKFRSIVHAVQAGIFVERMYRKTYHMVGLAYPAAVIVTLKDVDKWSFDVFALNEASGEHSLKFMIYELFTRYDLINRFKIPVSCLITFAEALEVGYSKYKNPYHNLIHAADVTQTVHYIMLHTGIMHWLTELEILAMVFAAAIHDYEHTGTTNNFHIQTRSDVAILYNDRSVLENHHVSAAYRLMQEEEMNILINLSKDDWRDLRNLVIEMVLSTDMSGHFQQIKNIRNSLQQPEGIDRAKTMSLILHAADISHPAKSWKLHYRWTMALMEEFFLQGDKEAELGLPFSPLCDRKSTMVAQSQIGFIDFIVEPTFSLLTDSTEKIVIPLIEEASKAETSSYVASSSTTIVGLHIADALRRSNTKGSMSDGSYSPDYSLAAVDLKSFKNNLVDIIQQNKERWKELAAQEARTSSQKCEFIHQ
Cytochrome P450 2C9, sequence (P11712 whole entry): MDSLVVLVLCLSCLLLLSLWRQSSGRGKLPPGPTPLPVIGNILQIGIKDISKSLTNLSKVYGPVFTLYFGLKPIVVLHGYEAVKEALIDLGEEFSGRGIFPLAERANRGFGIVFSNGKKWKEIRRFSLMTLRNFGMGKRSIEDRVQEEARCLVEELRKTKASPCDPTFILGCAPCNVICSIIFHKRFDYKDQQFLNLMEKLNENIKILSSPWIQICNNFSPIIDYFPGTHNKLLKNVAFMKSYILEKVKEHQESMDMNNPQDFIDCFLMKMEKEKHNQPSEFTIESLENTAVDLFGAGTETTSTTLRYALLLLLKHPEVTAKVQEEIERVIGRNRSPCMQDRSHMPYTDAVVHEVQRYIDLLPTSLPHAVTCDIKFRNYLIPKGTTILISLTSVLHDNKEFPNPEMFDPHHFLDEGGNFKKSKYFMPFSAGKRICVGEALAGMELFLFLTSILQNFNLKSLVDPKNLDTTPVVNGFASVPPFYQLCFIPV

For orientation: pIC50 means the IC50 on a negative log10 scale, so that one unit is a factor of ten. For orientation: clearance means a measure of how efficiently the substance is removed, as volume per time. What is called inhibition is the change of the read-out against control, counted positive when it falls. By MRT last is commonly meant the average time that molecules of a dose stay in the body. For orientation: half-life means the time in which the quantity being followed falls by half. Lower therefore signals rapid decline. Broadly, the Cmax is the maximum level reached in the sampled fluid or tissue. `CC1=C(C(=O)O[C@H](C)c2ccccc2)C(c2ccc3c(cnn3C)c2)C(C(=O)O[C@H](C)c2ccccc2)=C(C)N1`: the pIC50 is under 5.00 in data set [1]; 6.02 in data set [7]; under 5.00 in [11]; under 4.40 in data set [15]; 6.84 in [17]; 5.34 on Cytochrome P450 2C9. In data set [2], this molecule had a clearance of 18.4 mL/min/kg. In data set [3], this molecule returned an inhibition of under 50%. Further, the result with Rattus norvegicus [4], in the data set on Rattus norvegicus [6], in the data set on HLF [10], in the data set with Rattus norvegicus [13], with Rattus norvegicus [14] and with HLF [16] was Active. In addition, the result in the data set on Rattus norvegicus [18] and in the data set with Rattus norvegicus [19] was Active. This molecule registered a mean residence time (MRT last) in data set [5] of 3.44 h. Also, the Activity entry in the data set with HLF [8] was “Dde”. This molecule showed a half-life in data set [9] of 3.67 h. The Cmax in data set [12] amounted to 2830 ng/mL.
